Publication PMC8950477 (Pharmaceuticals, 2022)
Where two headings read alike, the source gives them in different places.

Legend:
[1] = system: K562 cells; assay: K562 cell viability assay (resazurin); assay type: cell-based, human; settings: for CC50: Homo sapiens, K562 cells, concentration-response curve
Experimental: The assays were performed on two cell lines, as described below. […] The K562 strain was grown in RPMI-1640 medium (R8758, Sigma-Aldrich, St. Louis, MO, USA) according to the provider’s recommendations and the literature [27, 28]. […] The media were supplemented with 10% fetal bovine serum (FBS) and 50 μg/mL gentamicin. All cell lines were grown in a cell culture bottle with a 0.22 μm pore membrane filter on the lid, allowing the circulation of CO2. […] All strains were maintained at 35 °C, at 5% CO2.
For the evaluation of the cytotoxic actions of the synthesized compounds, resazurin (Sigma-Aldrich) was used at a concentration of 0.1 mg/mL.
Standardization of this assay was not carried out in this project; thus, the following ideal values were used for the execution of the experiment: quantity of cells of 2 × 10^4 cell/mL, incubation time with the compounds of 48 h, incubation time with resazurin of one hour and DMSO used within the limit of 0.5%. As the cells grew in suspension, a long incubation period for adherence was not necessary. After plating, the cells were incubated for one hour, and then the prepared compounds were added and incubated for 47 h. After this period, resazurin was added at a final concentration per well of 0.01 mg/mL, and the first fluorescence reading (λex = 560 nm; λex = 590 nm) (zero time) was performed immediately using FlexStation 3 microplates (Molecular Devices). After the first reading, the plate was returned to the incubator, and after one hour, the second reading was performed, completing 48 h of incubation with the compounds. The compounds were solubilized in DMSO (Sigma-Aldrich) at concentrations ranging from 16.66 to 50 mM and maintained at −30 °C.
Analyses of the data obtained and graph construction were performed with the aid of GraphPad Prism 6 software (GraphPad Software Inc., San Diego, CA, USA).

[2] = WSS-1 cell viability assay (resazurin); assay type: cell-based; settings: human, WSS-1 cells (renal epithelium, adenovirus 5 transformed), concentration-response curve
Experimental: The assays were performed on two cell lines, as described below. […] WSS-1 (ATCC® CRL2029 ™): the cells used in this work were a healthy human cell line obtained from the renal epithelium of a fetus and transformed with adenovirus 5 DNA (ATCC: The Global Bioresource Center c). […] WSS-1 cells were cultured in high-glucose DMEM (Vitrocell) according to the provider’s recommendations (ATCC: The Global Bioresource Center c). The media were supplemented with 10% fetal bovine serum (FBS) and 50 μg/mL gentamicin. All cell lines were grown in a cell culture bottle with a 0.22 μm pore membrane filter on the lid, allowing the circulation of CO2. WSS-1 cells grew adherently, while cells of the K562 strain grew in suspension. All strains were maintained at 35 °C, at 5% CO2. In addition, all cell lines were routinely evaluated before freezing for storage in liquid nitrogen in the vapor phase for the detection of mycoplasma.
For the evaluation of the cytotoxic actions of the synthesized compounds, resazurin (Sigma-Aldrich) was used at a concentration of 0.1 mg/mL. The resazurin salt (Alamar Blue®) has a blue, nonfluorescent color and can be reduced to resorufin, which is pink and highly fluorescent. This process is an indicator of cell proliferation and fluorescent/colorimetric cytotoxicity with redox properties.
The first step of this assay consisted of plating the cells, with 5 × 10^4 cells per well. In this experiment, black plates with transparent bottoms and 96 wells (Greiner Bio-One) were used, and after plating, the cells were returned to the incubator for a period of approximately 20 h to allow growth and cell adhesion. The next step consisted of adding the obtained compounds, followed by incubation for a period of 46 h. Then, resazurin was added at a final concentration per well of 0.01 mg/mL, and immediately, the first fluorescence reading (λex = 560 nm; λex = 590 nm) (zero time) was performed using a FlexStation 3 microplate reader (Molecular Devices). After the first reading, the plate was returned to the incubator, and after two hours, the second reading was performed, completing 48 h of incubation with the compounds. As a negative control, cells treated with DMSO at a concentration of 0.5% instead of the obtained compounds were used. […] Preliminary screening of the compounds was carried out at fixed concentrations (1 and 10 μM) in triplicate. […] It should be noted that each experiment was carried out at least in duplicate. The fluorescence value at time zero (time immediately after the addition of resazurin) in each well was subtracted from the values obtained after two hours of incubation with resazurin. The average value with zero-time subtraction was used as 100% cell viability and was applied to calculate the percentage of cell viability in each well. […]

[3] = Solubility observed during concentration-response curve; assay type: physicochemical; settings: in the cell assay concentration-response curve
Experimental: Subsequently, a concentration-response curve was constructed for compounds 2g and 2h.

[4] = 48 h incubation, resazurin, read-out: CC50 K562
[5] = unit inferred, read-out: CC50 K562 (Figure 5)
[6] = WSS-1 cells, unit inferred, read-out: CC50 WSS1 (Figure 5)
[7] = WSS-1 healthy cells, 48 h incubation, resazurin, read-out: CC50 WSS-1

melting point | Structure (SMILES) | CC50 [1, 4] | also measured
187 to 188 °C | Cc1ccc(-n2cc(COc3ccnc4cc(Cl)ccc34)nn2)cc1Nc1nccc(-c2cccnc2)n1 [3a, N-(5-(4-(((7-Chloroquinolin-4-yl)oxy)methyl)-1H-1,2,3-triazol-1-yl)-2-methylphenyl)-4-(pyridin-3-yl)pyrimidin-2-amine] | – | –
107 to 108 °C | Cc1ccc(-n2cc(CCCOc3ccnc4cc(Cl)ccc34)nn2)cc1Nc1nccc(-c2cccnc2)n1 [3b, N-(5-(4-(3-((7-Chloroquinolin-4-yl)oxy)propyl)-1H-1,2,3-triazol-1-yl)-2-methylphenyl)-4-(pyridin-3-yl)pyrimidin-2-amine] | – | –
245 to 247 °C | Cc1ccc(NC(=O)Cn2cc(COc3ccnc4cc(Cl)ccc34)nn2)cc1Nc1nccc(-c2cccnc2)n1 [4a, 2-(4-(((7-Chloroquinolin-4-yl)oxy)methyl)-1H-1,2,3-triazol-1-yl)-N-(4-methyl-3-((4-(pyridin-3-yl)pyrimidin-2-yl)amino)phenyl)acetamide] | – | –
145 to 146 °C | Cc1ccc(NC(=O)Cn2cc(CCCOc3ccnc4cc(Cl)ccc34)nn2)cc1Nc1nccc(-c2cccnc2)n1 [4b, 2-(4-(3-((7-Chloroquinolin-4-yl)oxy)propyl)-1H-1,2,3-triazol-1-yl)-N-(4-methyl-3-((4-(pyridin-3-yl)pyrimidin-2-yl)amino)phenyl)acetamide] | – | –

Second part, the compound before the results:

Structure (SMILES) | melting point | CC50 [1, 4] | also measured
CCOC(=O)c1cnc2ccccc2c1Nc1ccc(C)c(Nc2nccc(-c3cccnc3)n2)c1 [2e, Ethyl 4-((4-methyl-3-((4-(pyridin-3-yl)pyrimidin-2-yl)amino)phenyl)amino)quinoline-3-carboxylate] | 208 to 211 °C | – | –
Cc1ccc(Nc2ccnc3ccccc23)cc1Nc1nccc(-c2cccnc2)n1 [2g, 4-Methyl-N^3-(4-(pyridin-3-yl)pyrimidin-2-yl)-N^1-(quinolin-4-yl)benzene-1,3-diamine] | 153 to 157 °C | 900 nM | CC50 [1, 5]: 874 nM; percentage of cell viability inhibition ([1]; K562 screening at 10 µM (Figure 4)): higher percentage of cell viability inhibition than IMT and BST; CC50 at 48 h [2, 6]: 215 nM; CC50 at 48 h [2, 7]: 200 nM
Cc1ccc(Nc2ccc3cccc(Cl)c3n2)cc1Nc1nccc(-c2cccnc2)n1 [2h, N^1-(8-Chloroquinolin-2-yl)-4-methyl-N^3-(4-(pyridin-3-yl)pyrimidin-2-yl)benzene-1,3-diamine] | 237 to 239 °C | 6200 nM | CC50 [1, 5]: 6250 nM; CC50 at 48 h [2, 6]: 4920 nM; CC50 at 48 h [2, 7]: 4900 nM; solubility [3]: low solubility at concentrations above 30 μM
Cc1ccc(NC(=O)c2ccc(CN3CCN(C)CC3)cc2)cc1Nc1nccc(-c2cccnc2)n1 [IMT, Imatinib, reference compound] | – | 80 nM | –
